The record followed here is PMC10599993, “The PTPN2/PTPN1 inhibitor ABBV-CLS-484 unleashes potent anti-tumour immunity” (Nature, 2023).

What all share (experiment): biochemical
One test addresses T1, m (MOP) (Homo sapiens, UniProt P35372).
T1 construct: gene OPRM1; MOP
The arrangement: Safety pharmacology off-target panel at Eurofins, radioligand binding with agonist or antagonist radioligand (Supplementary Table 2). As to conditions: agonist radioligand. On the procedure: (§1) Wide-range phosphatase, kinase and preclinical safety pharmacology off-target activity screens were conducted at Eurofins (Extended Data Table 5 and Supplementary Tables 1 and 2). A small phosphatase panel was developed at AbbVie to assess IC50 values on select phosphatases. The following enzymes used in the phosphatase selectivity panel were purchased from Eurofins: PTPN1 (PTP1B; 14–621), PTPN2 (TC-PTP; 14–646), PTPN9 (14–592), SHP1 (14–591) and SHP2 (14–622). The catalytic activity of the phosphatase was monitored using the small-molecule substrate DiFMUP (ThermoFisher) in a fluorescence assay format. In brief, the phosphatase reactions were performed at room temperature in the following assay buffer: 50 mM HEPES, pH 7.2, 100 mM NaCl, 1 mM EDTA, 0.005% Tween-20 and 5 mM TCEP. Each phosphatase was incubated with increasing concentrations of AC484 for 5 min, after which the substrate DiFMUP was added and incubated at 25 °C for 30 min. The final concentration of the enzyme and substrate was maintained at 0.5 nM and 5 μM, respectively, in all the assays. The reaction was then quenched by the addition of a 100 μM solution of bpV(Phen) (Enzo Life Sciences). The fluorescence signal was monitored using an Envision microplate reader (Perkin-Elmer) using excitation and emission wavelengths of 340 nm and 450 nm, respectively. The dose–response curves for the inhibitors were analysed using normalized IC50 regression curve fitting with control-based normalization. Supplementary file 41586_2023_6575_MOESM4_ESM.xlsx: Supplementary Table 2 AC484 receptor selectivity screen.

Test [1] addresses T2, Norepinephrine transporter (Homo sapiens, UniProt P23975).
T2 construct: gene SLC6A2
Also noted: Safety pharmacology off-target panel at Eurofins, radioligand binding with agonist or antagonist radioligand (Supplementary Table 2). The conditions noted are these: antagonist radioligand. On the procedure: as §1

A further test concerns the target T3, 5-HT7 (Homo sapiens, UniProt P34969).
T3 construct: gene HTR7
The arrangement: Safety pharmacology off-target panel at Eurofins, radioligand binding with agonist or antagonist radioligand (Supplementary Table 2). The conditions noted are these: agonist radioligand. On the procedure:
as §1

For another test, the target named is T4, b1 (h) (Homo sapiens, UniProt P08588).
T4 construct: gene ADRB1
T4 sequence (P08588 whole entry): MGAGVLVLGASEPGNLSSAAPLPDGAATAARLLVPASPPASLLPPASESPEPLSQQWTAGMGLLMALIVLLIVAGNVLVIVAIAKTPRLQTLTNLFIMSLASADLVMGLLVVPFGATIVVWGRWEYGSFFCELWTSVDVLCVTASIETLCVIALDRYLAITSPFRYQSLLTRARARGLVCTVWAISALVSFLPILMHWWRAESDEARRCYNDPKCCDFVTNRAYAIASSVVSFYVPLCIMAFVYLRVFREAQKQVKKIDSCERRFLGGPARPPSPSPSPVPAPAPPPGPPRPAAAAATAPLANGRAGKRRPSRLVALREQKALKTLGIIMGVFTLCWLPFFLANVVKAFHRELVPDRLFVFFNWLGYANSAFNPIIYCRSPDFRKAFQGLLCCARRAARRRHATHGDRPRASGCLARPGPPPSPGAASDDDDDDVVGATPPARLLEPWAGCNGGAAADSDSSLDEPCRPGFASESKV
The arrangement: Safety pharmacology off-target panel at Eurofins, radioligand binding with agonist or antagonist radioligand (Supplementary Table 2). The conditions noted are these: agonist radioligand. Here is the method:
as §1

For a further test, the target named is T5, H1 (Homo sapiens, UniProt P35367).
T5 construct: gene HRH1
Also noted: Safety pharmacology off-target panel at Eurofins, radioligand binding with agonist or antagonist radioligand (Supplementary Table 2). As to conditions: antagonist radioligand. On the procedure: as §1

The next test addresses T6, ETB (Homo sapiens, UniProt P24530).
T6 construct: gene EDNRB
The arrangement: Safety pharmacology off-target panel at Eurofins, radioligand binding with agonist or antagonist radioligand (Supplementary Table 2). The conditions noted are these: agonist radioligand. On the procedure:
as §1

In the next test the target is T7, EP2 (Homo sapiens, UniProt P43116).
T7 construct: gene PTGER2
The arrangement: Safety pharmacology off-target panel at Eurofins, radioligand binding with agonist or antagonist radioligand (Supplementary Table 2). The conditions noted are these: agonist radioligand. Here is the method: as §1

The target in the next test is T8, H2 (Homo sapiens, UniProt P25021).
T8 construct: gene HRH2
T8 sequence (P25021 whole entry): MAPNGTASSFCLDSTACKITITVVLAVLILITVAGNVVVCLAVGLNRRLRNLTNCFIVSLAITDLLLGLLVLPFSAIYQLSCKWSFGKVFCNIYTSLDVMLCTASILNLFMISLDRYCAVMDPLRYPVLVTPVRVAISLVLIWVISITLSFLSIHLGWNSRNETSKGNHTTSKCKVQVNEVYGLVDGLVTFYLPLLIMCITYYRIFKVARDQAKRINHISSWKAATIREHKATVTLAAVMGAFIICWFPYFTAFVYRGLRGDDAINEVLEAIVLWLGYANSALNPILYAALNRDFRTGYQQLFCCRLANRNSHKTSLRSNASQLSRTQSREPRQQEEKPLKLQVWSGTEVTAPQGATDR
Also noted: Safety pharmacology off-target panel at Eurofins, radioligand binding with agonist or antagonist radioligand (Supplementary Table 2). As to conditions: antagonist radioligand. Here is the method:
as §1

The target of the next test is AR (Homo sapiens, UniProt P10275). Also noted: Safety pharmacology off-target panel at Eurofins, radioligand binding with agonist or antagonist radioligand (Supplementary Table 2). The conditions noted are these: agonist radioligand. Here is the method: as §1
Chain of AR (P10275 whole entry): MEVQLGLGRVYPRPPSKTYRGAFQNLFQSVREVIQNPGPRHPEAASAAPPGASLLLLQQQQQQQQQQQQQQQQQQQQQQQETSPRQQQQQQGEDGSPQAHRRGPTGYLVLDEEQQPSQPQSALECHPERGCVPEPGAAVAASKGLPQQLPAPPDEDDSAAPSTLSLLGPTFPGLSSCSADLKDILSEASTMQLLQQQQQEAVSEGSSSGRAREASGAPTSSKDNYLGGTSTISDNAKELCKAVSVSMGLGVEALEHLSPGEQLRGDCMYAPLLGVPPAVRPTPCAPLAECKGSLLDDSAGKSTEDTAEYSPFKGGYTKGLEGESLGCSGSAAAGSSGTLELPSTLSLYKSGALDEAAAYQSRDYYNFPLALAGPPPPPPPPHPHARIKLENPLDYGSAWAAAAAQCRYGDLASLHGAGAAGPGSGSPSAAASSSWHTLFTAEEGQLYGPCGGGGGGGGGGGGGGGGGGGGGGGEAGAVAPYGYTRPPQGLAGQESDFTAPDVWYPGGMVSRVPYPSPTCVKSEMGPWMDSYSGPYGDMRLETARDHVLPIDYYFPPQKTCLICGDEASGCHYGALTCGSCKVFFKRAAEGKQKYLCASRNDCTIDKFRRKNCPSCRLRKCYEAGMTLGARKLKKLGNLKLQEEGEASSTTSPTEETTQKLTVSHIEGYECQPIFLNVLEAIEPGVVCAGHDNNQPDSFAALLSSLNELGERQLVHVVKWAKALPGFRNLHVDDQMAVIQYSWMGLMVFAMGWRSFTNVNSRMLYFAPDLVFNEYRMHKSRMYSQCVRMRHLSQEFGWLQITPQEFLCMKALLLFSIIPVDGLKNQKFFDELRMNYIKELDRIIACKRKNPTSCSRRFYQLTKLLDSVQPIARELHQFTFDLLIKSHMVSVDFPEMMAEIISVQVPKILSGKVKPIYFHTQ
A further test concerns the target T9, M3 (Homo sapiens, UniProt P20309).
T9 construct: gene CHRM3
The arrangement: Safety pharmacology off-target panel at Eurofins, radioligand binding with agonist or antagonist radioligand (Supplementary Table 2). As to conditions: antagonist radioligand. Here is the method:
as §1

Another test deals with T10, GR (Homo sapiens, UniProt P04150).
T10 construct: gene NR3C1
The arrangement: Safety pharmacology off-target panel at Eurofins, radioligand binding with agonist or antagonist radioligand (Supplementary Table 2). The conditions noted are these: agonist radioligand. Here is the method: as §1

The target of a further test is T11, Y1 (Homo sapiens, UniProt P25929).
T11 construct: gene NPY1R
Also noted: Safety pharmacology off-target panel at Eurofins, radioligand binding with agonist or antagonist radioligand (Supplementary Table 2). As to conditions: agonist radioligand. Here is the method:
as §1

A further test deals with T12, M4 (Homo sapiens, UniProt P08173).
T12 construct: gene CHRM4
T12 sequence (P08173 whole entry): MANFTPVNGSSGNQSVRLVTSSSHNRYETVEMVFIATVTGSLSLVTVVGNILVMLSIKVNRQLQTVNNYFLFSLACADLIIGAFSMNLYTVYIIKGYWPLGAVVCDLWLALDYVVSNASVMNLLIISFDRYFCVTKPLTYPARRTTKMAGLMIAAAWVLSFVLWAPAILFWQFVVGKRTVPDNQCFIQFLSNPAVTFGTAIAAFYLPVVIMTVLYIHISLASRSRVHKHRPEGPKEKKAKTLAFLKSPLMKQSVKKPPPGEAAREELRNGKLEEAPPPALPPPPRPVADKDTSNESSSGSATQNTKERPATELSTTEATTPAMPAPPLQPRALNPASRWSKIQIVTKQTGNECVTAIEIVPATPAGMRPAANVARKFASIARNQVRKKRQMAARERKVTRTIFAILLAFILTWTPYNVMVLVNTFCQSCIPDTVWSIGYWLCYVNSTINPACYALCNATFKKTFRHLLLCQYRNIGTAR
The arrangement: Safety pharmacology off-target panel at Eurofins, radioligand binding with agonist or antagonist radioligand (Supplementary Table 2). As to conditions: antagonist radioligand. On the procedure: as §1

Another test has as its target T13, D2S (Homo sapiens, UniProt P14416).
T13 construct: gene DRD2; D2S short isoform
Also noted: Safety pharmacology off-target panel at Eurofins, radioligand binding with agonist or antagonist radioligand (Supplementary Table 2). The conditions noted are these: antagonist radioligand. Here is the method: as §1

For another test, the target named is T14, D1 (Homo sapiens, UniProt P21728).
T14 construct: gene DRD1
T14 sequence (P21728 whole entry): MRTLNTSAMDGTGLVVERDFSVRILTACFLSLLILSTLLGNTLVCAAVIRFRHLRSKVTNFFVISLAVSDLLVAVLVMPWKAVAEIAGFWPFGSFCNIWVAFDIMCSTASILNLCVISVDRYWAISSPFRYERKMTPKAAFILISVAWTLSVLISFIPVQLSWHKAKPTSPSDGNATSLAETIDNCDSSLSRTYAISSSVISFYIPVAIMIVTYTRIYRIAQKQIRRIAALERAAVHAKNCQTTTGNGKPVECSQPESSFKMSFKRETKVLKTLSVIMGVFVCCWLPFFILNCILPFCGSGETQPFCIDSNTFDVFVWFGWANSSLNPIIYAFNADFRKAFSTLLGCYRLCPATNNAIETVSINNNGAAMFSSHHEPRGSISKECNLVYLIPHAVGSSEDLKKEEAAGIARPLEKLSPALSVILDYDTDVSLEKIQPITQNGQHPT
Also noted: Safety pharmacology off-target panel at Eurofins, radioligand binding with agonist or antagonist radioligand (Supplementary Table 2). As to conditions: antagonist radioligand. Here is the method: as §1

The next test addresses T15, M5 (Homo sapiens, UniProt P08912).
T15 construct: gene CHRM5
Also noted: Safety pharmacology off-target panel at Eurofins, radioligand binding with agonist or antagonist radioligand (Supplementary Table 2). As to conditions: antagonist radioligand. Here is the method: as §1

A further test addresses T16, Motilin (Homo sapiens, UniProt O43193).
T16 construct: gene MLNR
Also noted: Safety pharmacology off-target panel at Eurofins, radioligand binding with agonist or antagonist radioligand (Supplementary Table 2). The conditions noted are these: agonist radioligand. On the procedure:
as §1

The target in another test is ErbB2 (Homo sapiens, UniProt P04626). Also noted: Kinase selectivity panel, IC50 of AC484 (Supplementary Table 1).
Chain of ErbB2 (P04626 whole entry): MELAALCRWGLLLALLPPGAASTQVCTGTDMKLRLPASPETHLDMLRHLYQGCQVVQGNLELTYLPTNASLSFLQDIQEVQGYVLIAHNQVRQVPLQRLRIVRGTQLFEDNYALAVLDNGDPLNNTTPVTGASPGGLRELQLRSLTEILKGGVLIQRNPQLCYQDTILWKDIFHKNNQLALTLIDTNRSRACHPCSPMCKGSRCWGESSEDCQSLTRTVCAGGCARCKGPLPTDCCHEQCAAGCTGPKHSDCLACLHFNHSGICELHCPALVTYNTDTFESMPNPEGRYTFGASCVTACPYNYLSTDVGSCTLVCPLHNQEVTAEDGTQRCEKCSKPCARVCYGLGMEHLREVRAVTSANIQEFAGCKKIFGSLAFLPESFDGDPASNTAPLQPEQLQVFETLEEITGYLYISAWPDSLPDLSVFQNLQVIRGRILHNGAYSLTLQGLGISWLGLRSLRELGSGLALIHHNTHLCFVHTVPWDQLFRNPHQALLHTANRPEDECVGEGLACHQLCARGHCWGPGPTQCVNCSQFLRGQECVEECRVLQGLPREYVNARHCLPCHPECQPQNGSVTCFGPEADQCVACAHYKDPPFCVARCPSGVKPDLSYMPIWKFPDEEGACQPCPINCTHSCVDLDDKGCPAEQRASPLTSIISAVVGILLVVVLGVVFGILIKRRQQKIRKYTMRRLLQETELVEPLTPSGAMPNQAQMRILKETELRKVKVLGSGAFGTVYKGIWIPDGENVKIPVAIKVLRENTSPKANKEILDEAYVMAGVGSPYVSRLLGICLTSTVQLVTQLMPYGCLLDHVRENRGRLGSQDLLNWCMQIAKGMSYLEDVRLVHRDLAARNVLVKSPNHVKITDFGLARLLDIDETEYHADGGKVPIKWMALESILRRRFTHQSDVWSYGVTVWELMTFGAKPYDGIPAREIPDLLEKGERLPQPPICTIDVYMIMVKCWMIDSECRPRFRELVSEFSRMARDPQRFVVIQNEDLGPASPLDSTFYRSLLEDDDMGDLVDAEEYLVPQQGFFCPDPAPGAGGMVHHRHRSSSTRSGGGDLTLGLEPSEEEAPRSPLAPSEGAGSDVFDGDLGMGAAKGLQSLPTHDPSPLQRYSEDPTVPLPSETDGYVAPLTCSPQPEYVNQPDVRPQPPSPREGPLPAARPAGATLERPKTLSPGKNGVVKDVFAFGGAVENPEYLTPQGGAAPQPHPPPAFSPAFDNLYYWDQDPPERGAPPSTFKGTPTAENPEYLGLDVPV
The target in another test is MAP2K3 (Homo sapiens, UniProt P46734). Also noted: Kinase selectivity panel, IC50 of AC484 (Supplementary Table 1).
The next test addresses T17, MST1 (Homo sapiens, UniProt Q13043).
T17 construct: gene STK4
Also noted: Kinase selectivity panel, IC50 of AC484 (Supplementary Table 1).

T17 sequence (Q13043 whole entry): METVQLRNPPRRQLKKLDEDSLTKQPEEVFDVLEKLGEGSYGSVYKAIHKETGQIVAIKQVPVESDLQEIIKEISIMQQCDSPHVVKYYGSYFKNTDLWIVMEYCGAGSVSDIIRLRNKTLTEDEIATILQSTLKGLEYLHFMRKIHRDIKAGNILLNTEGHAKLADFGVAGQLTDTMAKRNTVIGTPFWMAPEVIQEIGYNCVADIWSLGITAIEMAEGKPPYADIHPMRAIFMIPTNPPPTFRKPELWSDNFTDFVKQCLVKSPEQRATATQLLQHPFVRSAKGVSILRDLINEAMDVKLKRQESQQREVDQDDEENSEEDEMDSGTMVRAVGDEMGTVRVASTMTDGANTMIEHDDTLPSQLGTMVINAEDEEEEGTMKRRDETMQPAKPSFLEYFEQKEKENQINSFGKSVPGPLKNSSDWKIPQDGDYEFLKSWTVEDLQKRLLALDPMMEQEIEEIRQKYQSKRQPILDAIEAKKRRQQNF
T1 sequence (P35372 whole entry): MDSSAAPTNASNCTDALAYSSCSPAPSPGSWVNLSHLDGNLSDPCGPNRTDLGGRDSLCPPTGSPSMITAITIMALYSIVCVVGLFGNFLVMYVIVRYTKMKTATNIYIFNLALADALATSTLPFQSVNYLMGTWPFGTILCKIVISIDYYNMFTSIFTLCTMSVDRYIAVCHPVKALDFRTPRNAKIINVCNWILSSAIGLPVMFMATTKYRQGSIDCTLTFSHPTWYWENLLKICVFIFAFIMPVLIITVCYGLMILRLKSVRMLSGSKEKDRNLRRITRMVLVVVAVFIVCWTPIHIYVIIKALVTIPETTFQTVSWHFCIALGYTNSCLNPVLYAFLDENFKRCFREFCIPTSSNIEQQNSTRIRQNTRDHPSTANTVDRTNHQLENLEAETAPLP

By AC50 is commonly meant the concentration giving half of the maximal activity seen. As usually defined, the IC50 is the concentration at which inhibition is half-maximal. Low readings indicate higher potency, high ones lower potency. For the compound `CC(C)CCN[C@@H]1CCc2cc(O)c(N3CC(=O)NS3(=O)=O)c(F)c2C1` [AC484, ABBV-CLS-484], the AC50 (at m (MOP); in test [1]; on 5-HT7; at b1 (h); at H1; at ETB) was over 0.01 mM throughout. Besides, the concentration at half-maximal activity (AC50) on EP2, on H2, at AR, on M3, at GR and on Y1 was over 0.01 mM in each case. The AC50 on M4, at D2S, at D1, on M5 and on Motilin was over 0.01 mM throughout. Besides, the IC50 against ErbB2, on MAP2K3 and at MST1 was over 10 µM throughout.
